Measurements: US4874779A, “Mitomycin phosphate derivatives” (priority 1988, dated 1989)
Where a name gives a salt, the structure may show the parent alone. Read-outs that look alike come from different tables or passages of the source.

Tests used:
[1] = Relative toxicity in Balb C nu/nu mice; type: in vivo; settings: for LD50 / MTD at 600 h: mouse, in vivo, ip; for LD50: two equal doses spaced 4 days apart; for MTD at 600 h: 4 equal doses over a 25 day period, read-out: total amount tolerated
Procedure: The relative toxicities of IIa and V were determined in Balb C nu/nu mice. […] Total amounts of up to 40 mg/kg of IIa and 100 mg/kg of V were tolerated if given in 4 equal doses over a 25 day period.

[2] = tested on: human lung tumor cell line H2981; assay: Cytotoxicity to H2981 cells by inhibition of 3H-Thy incorporation; type: cell-based; settings: for cytotoxic activity (in words): without alkaline phosphatase pre-treatment; for IC50: Homo sapiens
Procedure: Cytotoxicity of compounds V, IIa, and mitomycin C was determined using human lung tumor cell line H2981. Thus a suspension of H2981 cells in Iscove's medium (IMDM) containing 10% fetal calf serum were plated into 96-well microtiter plates (10,000 cells/well). After 1 hr, the medium was removed, a pH 7.2 phosphate buffered saline solution (PBS) of the drug was added, and incubation at 37° C. was commenced for 1 hour. The cells were then washed twice, and incubation was continued an additional 17 hours, followed by a 6 hour pulse with ^3 H-Thy (1.0 μCi/well). The plates were frozen at -70° C. to detach the cells, and the cells were harvested onto glass fiber discs. The filters were counted on a Beckman 3701 scintillation counter. Inhibition of ^3 H-Thy incorporation was used as an indicator for cytotoxic effects.

human lung tumor H2981 = assay: Antitumor activity against subcutaneous human lung tumor H2981 xenograft in Balb C nu/nu female mice; type: in vivo; settings: for time required to reach an average tumor volume of 750 mm^3: IIa 0.2 ml of 1 mg/ml, V 0.2 ml of 3 mg/ml, i.p. days 15, 21, 31, 37, untreated control 27 days
Procedure: The arrows indicate the days on which drugs were given.
Antitumor activity of the compound of Example 1 (V) was evaluated in Balb C nu/nu female mice (4-6 weeks old, purchased from Life Sciences, St. Petersburg, Fl) implanted subcutaneously with a xenograft of human lung tumor H2981 in the right hind flank. Compound IIa served as positive control. Drug treatment was initiated on day 15 (day 0 being the day of tumor implant) when the tumors were approximately 100 mm^3 in volume. 0.2 Ml of the test compounds (1 mg/ml for IIa and 3 mg/ml for V in phosphate-buffered saline) were injected intraperitoneally on days 15, 21, 31, and 37. The results are graphically shown in FIG. 1 and indicate that the time required to reach an average tumor volume of 750 mm^3 was 45 days in mice treated with IIa, 63 days in mice treated with V, and 27 days in the untreated control group.

Structure (SMILES)	LD50 [1]	MTD at 600 h [1]	cytotoxic activity (in words) ([2]; H2981 cells)	IC50 ([2]; H2981, 1 h, pH 7.2, read-out: IC50 (cytotoxicity, inhibition of 3H-Thy incorporation))	time required to reach an average tumor volume of 750 mm^3 (human lung tumor H2981)	IC50 ([2]; H2981 cells, 1 hour drug exposure in pH 7.2 PBS at 37° C., 17 hours further incubation, 6 hour 3H-Thy pulse, read-out: IC50 (cytotoxicity, inhibition of 3H-Thy incorporation))	tolerability of prodrug (in words) ([1]; relative to IIa)	cytotoxicity after pre-treatment with alkaline phosphatase (in words) ([2]; H2981 cells, V pre-treated with alkaline phosphatase)	antitumor effect compared with the corresponding alcohol (IIa) (human lung tumor H2981; H2981 xenograft, i.p.)
COC12C(COC(N)=O)C3=C(C(=O)C(C)=C(NCCO)C3=O)N1CC1NC12 (centres unmarked) [IIa]	45 mg/kg	≥ 40 mg/kg	highly cytotoxic	~1 µM	45 days	–	–	–	–
CO[C@@]12[C@H](COC(N)=O)C3=C(C(=O)C(C)=C(N)C3=O)N1C[C@@H]1N[C@@H]12 [mitomycin C]	–	–	highly cytotoxic	–	–	~1 µM	–	–	–
COC12C(COC(N)=O)C3=C(C(=O)C(C)=C(NCCOP(=O)(O)O)C3=O)N1CC1NC12 (centres unmarked) [Example 1, 9a-Methoxy-7-[[(phosphonooxy)ethyl]amino]mitosane disodium salt]	90 mg/kg	≤ 100 mg/kg	A small amount of cytotoxic activity	–	63 days	–	significantly more prodrug was tolerated because of its reduced toxicity	cytotoxicity comparable to that of IIa and mitomycin C	stronger antitumor effect than the corresponding alcohol
